US11661434B2, “Phosphate of platinum compound and preparation method therefor” (Beijing Showby Pharmaceutical Co., LTD., priority 2018, dated 2023)

How the values were obtained:
[1] = pH value of compound, salts and lyophilized preparations; type: physicochemical; details: compound or its salts
Experimental: The solution was stirred for 10 min, and then stood for adsorption for 20 min, followed by filtering with a 0.22 μm microfiltration membrane, and then was placed into 2 ml vials. Each vial was filled with 1 ml of the solution, which was then lyophilized to obtain the product at the specification of 20 mg/vial. The product was a white loose block, with a pH value of 4.10.
(§1) 100) ml of water for injection was added at a low temperature (2-8° C.) to dissolve the compound, and 2.0 g of activated carbon for medicinal use was added. The solution was stirred for 10 min, and then stood for adsorption for 20 min, followed by filtering with a 0.22 μm microfiltration membrane, and then was placed into 2 ml vials. Each vial was filled with 1 ml of the solution, which was then lyophilized to obtain the product at the specification of 100 mg/vial.
as §1, with “100” for “100)”, “sodium dihydrogen phosphate-disodium hydrogen phosphate buffer (pH of 6.0)” for “water for injection”, “0.5” for “2.0”, “200” for “100”

[2] = hygroscopicity experiments of various salts; type: physicochemical; details: 25° C. ± 1° C.
[3] = known platinum drugs; cited from earlier work
[4] = relative humidity 44% ± 2%, 1 h
[5] = relative humidity 44% ± 2%, 24 h
[6] = relative humidity 69% ± 2%, 1 h
[7] = relative humidity 69% ± 2%, 24 h

| SMILES | pH value [1] | Hygroscopicity [2, 4] [%] | Status [2, 4] | Hygroscopicity [2, 5] [%] | Status [2, 5] | Hygroscopicity [2, 6] [%] | Status [2, 6] | Hygroscopicity [2, 7] [%] | Status [2, 7] | solubility [3] [mg/mL] |
| --- | --- | --- | --- | --- | --- | --- | --- | --- | --- | --- |
| CCN(CC)CCCCC1C(=O)[O][Pt][O]C1=O.N[C@@H]1CCCC[C@H]1N [Example 1, (4-diethylamino)butylmalonato-(1R,2R)-(−)-1,2-cyclohexanediamine platinum(II)] | greater than 10 |  |  |  |  |  |  |  |  |  |
| CCN(CC)CCCCC1C(=O)[O][Pt]2([NH][C@@H]3CCCC[C@H]3[NH]2)[O]C1=O.O=C(O)/C=C/C(=O)O (stereo partly shown) [Fumarate salt] |  | 5.87 | Viscous | 10.83 | Semi- | 6.83 | Viscous | 13.90 | Semi- |  |
| CCN(CC)CCCCC1C(=O)[O][Pt]2([NH][C@@H]3CCCC[C@H]3[NH]2)[O]C1=O.O=C(O)[C@H](O)[C@@H](O)C(=O)O (stereo partly drawn) [L(+) tartrate salt, 2-(4-diethylamino)butylmalonato-(1R,2R)-(−)-1,2-cyclohexanediamine platinum(II) L-(+) tartrate] |  | 4.88 | Viscous | 9.76 | Light gray | 5.78 | Viscous | 12.79 | Light |  |
| CCN(CC)CCCCC1C(=O)[O][Pt]2([NH][C@@H]3CCCC[C@H]3[NH]2)[O]C1=O.CS(=O)(=O)O (stereo partly drawn) [Mesylate salt, 2-(4-diethylamino)butylmalonato-(1R,2R)-(−)-1,2-cyclohexanediamine platinum(II) mesylate] |  | 4.98 | Viscous | 9.89 | Light gray | 6.37 | Viscous | 13.89 | Light gray |  |
| CCN(CC)CCCCC1C(=O)[O][Pt]2([NH][C@@H]3CCCC[C@H]3[NH]2)[O]C1=O.Cc1ccc(S(=O)(=O)O)cc1 (stereo partly drawn) [Tosylate salt, 2-(4-diethylamino)butylmalonato-(1R,2R)-(−)-1,2-cyclohexanediamine platinum(II) tosylate] |  | 4.56 | Viscous | 8.78 | Light | 5.30 | Viscous | 9.86 | Light |  |
| N.N.O=C([O-])C1(C(=O)[O-])CCC1.[Pt+2] [carboplatin] |  |  |  |  |  |  |  |  |  | 17.8 |
